According to PubChem BioAssay (NCI):
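Cultured in 96-well plates, cells were exposed to test compound for 48 hours across five concentrations. At the GI50, growth is halved. TGI: concentration producing complete growth inhibition.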

Tests used:
Experiment in all cases: NCI-60 cell line screen, 48 h
SK-MEL-28 melanoma = test system: SK-MEL-28 melanoma
SN12C renal = test system: SN12C renal
MALME-3M melanoma = test system: MALME-3M melanoma
HL-60(TB) leukemia = test system: HL-60(TB) leukemia
NCI-H522 lung = test system: NCI-H522 lung
K-562 leukemia = test system: K-562 leukemia
CCRF-CEM leukemia = test system: CCRF-CEM leukemia
HOP-92 NSCLC = test system: HOP-92 NSCLC
PC-3 prostate = test system: PC-3 prostate
BT-549 breast = test system: BT-549 breast

Row | Compound | TGI (SK-MEL-28 melanoma) [µM] | TGI (SN12C renal) [µM] | TGI (MALME-3M melanoma) [µM] | TGI (HL-60(TB) leukemia) [µM] | TGI (NCI-H522 lung) [µM] | TGI (K-562 leukemia) [µM] | TGI (CCRF-CEM leukemia) [µM] | TGI (HOP-92 NSCLC) [µM] | GI50 (SK-MEL-28 melanoma) [µM] | GI50 (SN12C renal) [µM] | GI50 (MALME-3M melanoma) [µM] | GI50 (PC-3 prostate) [µM] | TGI (PC-3 prostate) [µM] | GI50 (HL-60(TB) leukemia) [µM] | GI50 (NCI-H522 lung) [µM] | GI50 (K-562 leukemia) [µM] | GI50 (CCRF-CEM leukemia) [µM] | GI50 (BT-549 breast) [µM] | TGI (BT-549 breast) [µM]
1 | NC(=O)C(=O)CC(=O)c1ccccc1NC1=CC(=O)C(=O)c2ccccc21 | > 100 | > 100 | > 59 | > 76.6 | > 100 | > 100 | > 100 | > 81.2 | – | – | – | – | – | – | – | – | – | – | –
2 | N#CC(=Nc1ccccc1N(C(=O)c1ccccc1)C(=O)c1ccccc1)c1ccccc1 | > 100 | > 100 | > 100 | > 41.1 | > 100 | > 60.9 | > 31.2 | > 93.3 | – | – | – | – | – | – | – | – | – | – | –
3 | Cc1cc(N/N=C/c2ccccn2)nc2ccccc12 | 16.8 | 17.3 | 10.2 | 0.804 | 4.81 | 7.55 | 1.77 | – | 0.895 | 0.368 | 0.842 | 0.486 | 19.2 | 0.295 | 0.359 | 0.422 | 0.25 | 0.85 | 20.3
4 | COc1cc2c(/C=N\N=C(N)N)c[nH]c2cc1C | – | 37.5 | – | 29.4 | 32.9 | 30.8 | 27.7 | – | – | 11.2 | – | 14.3 | 27.4 | 15.9 | 17.3 | 17.1 | 14.6 | 15.3 | 28.5
5 | COC(=O)C(=O)C(C(C)=O)C(=O)NCc1ccc(OC)c(OC)c1 (stereo not drawn) | > 100 | > 100 | > 100 | > 100 | > 100 | > 100 | > 100 | > 100 | – | – | – | – | – | – | – | – | – | – | –
6 | ClCCN(CCCl)c1ccc(CNc2ccccc2)cc1 | > 100 | > 100 | 76.8 | 54 | 22 | > 100 | > 100 | – | 36.8 | 4 | 21.8 | 11.6 | > 100 | 2.44 | 4.85 | 8.66 | 4.12 | 7.2 | 43
7 | CCOP(=O)(OCC)C(C(=O)OC)C(=O)C(=O)Nc1ccc(Cl)cc1Cl (stereo not drawn) | > 100 | > 100 | > 100 | > 100 | > 100 | > 100 | > 100 | > 100 | – | – | – | – | – | – | – | – | – | – | –
8 | Nc1nc(-c2ccc(Cl)c([N+](=O)[O-])c2)cs1 | – | > 100 | > 100 | > 100 | – | > 100 | > 100 | 74.6 | – | – | – | – | – | – | – | – | – | – | –
9 | O=C1NCCS(=O)(=O)N[C@@H](CC2=CC=CCC2)C(=O)N2CCCC12 (stereo partly drawn) | > 100 | > 100 | > 100 | > 100 | > 100 | > 100 | > 100 | > 100 | – | – | – | – | – | – | – | – | – | – | –
10 | O=C(N/C(=C\c1ccc([N+](=O)[O-])cc1)c1nc2ccccc2[nH]1)c1ccccc1 | > 100 | > 100 | > 100 | > 100 | > 100 | > 100 | – | > 100 | – | – | – | – | – | – | – | – | – | – | –
